Data: patent US4369191A, “Naphthalenetetrayltetrakis(sulfonylimino)-tetrabenzene di- and tricarboxylic acids” (American Cyanamid Company, priority 1981, dated 1983)
Counter-ions that a name gives are not always drawn.

How the values were obtained:
[1] = target: T1, activated human C1 (Homo sapiens, UniProt P09871); experiment: Test Code 026 (C1 inhibitor); assay type: biochemical; settings: in vitro; serial twofold dilution assay, higher well number indicates higher activity
T1 construct: fluid-phase human C2 as substrate in presence of C4
T1 sequence (P09871 16-688): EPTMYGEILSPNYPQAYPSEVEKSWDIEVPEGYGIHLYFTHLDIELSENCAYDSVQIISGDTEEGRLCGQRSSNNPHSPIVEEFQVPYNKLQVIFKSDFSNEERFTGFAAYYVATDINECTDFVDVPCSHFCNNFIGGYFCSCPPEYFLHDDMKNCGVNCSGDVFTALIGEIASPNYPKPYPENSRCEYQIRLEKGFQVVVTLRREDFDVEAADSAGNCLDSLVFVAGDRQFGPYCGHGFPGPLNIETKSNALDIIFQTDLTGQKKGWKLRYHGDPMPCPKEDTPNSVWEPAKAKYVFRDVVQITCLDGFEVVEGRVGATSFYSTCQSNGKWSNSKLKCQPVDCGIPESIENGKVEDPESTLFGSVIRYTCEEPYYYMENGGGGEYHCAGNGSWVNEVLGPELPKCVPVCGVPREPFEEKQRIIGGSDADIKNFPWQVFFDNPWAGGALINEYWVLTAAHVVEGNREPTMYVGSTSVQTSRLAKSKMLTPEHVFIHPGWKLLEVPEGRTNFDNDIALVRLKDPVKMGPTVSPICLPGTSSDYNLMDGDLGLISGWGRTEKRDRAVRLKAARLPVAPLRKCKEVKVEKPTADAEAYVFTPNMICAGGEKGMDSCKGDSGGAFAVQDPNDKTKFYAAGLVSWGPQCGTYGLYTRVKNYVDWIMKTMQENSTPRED
T1 sequence (P00736 18-705 partner): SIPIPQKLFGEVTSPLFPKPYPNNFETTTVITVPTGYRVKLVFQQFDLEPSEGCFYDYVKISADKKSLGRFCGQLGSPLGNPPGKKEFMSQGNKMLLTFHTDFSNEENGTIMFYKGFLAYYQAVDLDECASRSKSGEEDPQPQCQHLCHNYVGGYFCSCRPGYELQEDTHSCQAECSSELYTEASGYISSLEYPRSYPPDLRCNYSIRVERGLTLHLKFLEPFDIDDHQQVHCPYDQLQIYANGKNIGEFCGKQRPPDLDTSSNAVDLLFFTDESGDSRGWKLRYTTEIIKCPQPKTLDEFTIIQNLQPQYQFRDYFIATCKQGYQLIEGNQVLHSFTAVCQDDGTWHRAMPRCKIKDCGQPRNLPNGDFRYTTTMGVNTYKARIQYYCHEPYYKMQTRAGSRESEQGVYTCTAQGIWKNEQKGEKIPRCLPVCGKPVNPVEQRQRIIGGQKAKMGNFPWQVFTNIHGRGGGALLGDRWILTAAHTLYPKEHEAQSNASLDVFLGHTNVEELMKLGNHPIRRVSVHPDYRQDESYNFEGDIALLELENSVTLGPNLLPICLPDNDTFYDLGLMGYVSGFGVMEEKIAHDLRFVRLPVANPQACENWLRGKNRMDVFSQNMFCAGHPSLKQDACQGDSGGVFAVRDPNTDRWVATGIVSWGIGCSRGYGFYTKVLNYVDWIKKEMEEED
T1 sequence (P02745 23-245 partner): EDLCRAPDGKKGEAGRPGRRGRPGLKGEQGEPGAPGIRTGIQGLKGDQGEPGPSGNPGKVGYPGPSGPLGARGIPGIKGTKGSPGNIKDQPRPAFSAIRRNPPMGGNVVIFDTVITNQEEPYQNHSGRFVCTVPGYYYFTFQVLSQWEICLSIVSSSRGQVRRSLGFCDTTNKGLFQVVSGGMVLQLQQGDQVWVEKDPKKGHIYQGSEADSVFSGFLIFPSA
T1 sequence (P02746 28-253 partner): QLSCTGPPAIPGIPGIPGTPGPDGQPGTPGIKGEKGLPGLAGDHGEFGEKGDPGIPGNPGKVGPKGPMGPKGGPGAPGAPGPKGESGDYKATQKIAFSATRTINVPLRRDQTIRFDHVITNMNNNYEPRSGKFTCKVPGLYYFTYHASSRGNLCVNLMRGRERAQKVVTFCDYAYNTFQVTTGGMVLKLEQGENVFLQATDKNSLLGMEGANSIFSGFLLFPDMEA
T1 sequence (P02747 29-245 partner): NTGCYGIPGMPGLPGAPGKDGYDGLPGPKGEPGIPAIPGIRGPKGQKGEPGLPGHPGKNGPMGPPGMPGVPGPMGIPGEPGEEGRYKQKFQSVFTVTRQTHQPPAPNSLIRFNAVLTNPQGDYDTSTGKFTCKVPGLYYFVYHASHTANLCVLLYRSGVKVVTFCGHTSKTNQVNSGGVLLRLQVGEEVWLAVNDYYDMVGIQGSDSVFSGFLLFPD
From the text: (§1) An active inhibitor protects C2 from C1 and C4; (ii) Test Code 035 (C3-C9 inhibitor)--This test determines the ability of the late components of human complement (C3-C9) to lyse EAC 142 in the presence of appropriate dilutions of the test compound. An active inhibitor protects EAC 142 from lysis by human C3-C9; (iii) Test Code 036 (C-Shunt inhibitor)--In this test human erythrocytes rendered fragile are lysed in autologous serum via the shunt pathway activated by cobra venom factor in the presence of appropriate dilutions of the test compound. Inhibition of the shunt pathway results in failure of lysis; (iv) Cap 50 Test--Here, appropriate amounts of the test compound are added to a pool of guinea pig serum in vitro, after which the undiluted serum capillary tube assay of U.S. Pat. No. 3,876,376 is run. The concentration of compound inhibiting 50% is reported; and (v) Guinea Pig Intraperitoneal Test (GPIP)--Guinea pigs weighing about 300 g are dosed intraperitoneally (i.p.) with 200 mg/kg of the test compound dissolved in saline and adjusted to pH 7-8. […] Percent inhibition is calculated by comparison with simultaneous controls. […]

[2] = test system: late components of human complement (C3-C9); experiment: Test Code 035 (C3-C9 inhibitor), lysis of EAC 142; assay type: biochemical; settings: in vitro; serial twofold dilution assay, higher well number indicates higher activity
From the text: as §1

[3] = test system: shunt pathway; experiment: Test Code 036 (C-Shunt inhibitor), lysis of human erythrocytes in autologous serum activated by cobra venom factor; assay type: cell-based; settings: in vitro; serial twofold dilution assay, higher well number indicates higher activity
From the text: as §1

[4] = test system: complement activity; experiment: Guinea Pig Intraperitoneal Test (GPIP); assay type: in vivo; settings: 200 mg/kg i.p.; for In vivo Activity (Guinea Pigs) % Inhibition Intraperitoneal, 30 minutes: serum complement activity 30 minutes after injection; for In vivo Activity (Guinea Pigs) % Inhibition Intraperitoneal, 60 minutes: serum complement activity 60 minutes after injection; for In vivo Activity (Guinea Pigs) % Inhibition Intraperitoneal, 120 minutes: serum complement activity 120 minutes after injection
From the text: An active inhibitor protects C2 from C1 and C4; (ii) Test Code 035 (C3-C9 inhibitor)--This test determines the ability of the late components of human complement (C3-C9) to lyse EAC 142 in the presence of appropriate dilutions of the test compound. An active inhibitor protects EAC 142 from lysis by human C3-C9; (iii) Test Code 036 (C-Shunt inhibitor)--In this test human erythrocytes rendered fragile are lysed in autologous serum via the shunt pathway activated by cobra venom factor in the presence of appropriate dilutions of the test compound. Inhibition of the shunt pathway results in failure of lysis; (iv) Cap 50 Test--Here, appropriate amounts of the test compound are added to a pool of guinea pig serum in vitro, after which the undiluted serum capillary tube assay of U.S. Pat. No. 3,876,376 is run. The concentration of compound inhibiting 50% is reported; and (v) Guinea Pig Intraperitoneal Test (GPIP)--Guinea pigs weighing about 300 g are dosed intraperitoneally (i.p.) with 200 mg/kg of the test compound dissolved in saline and adjusted to pH 7-8. Approximately 0.4 ml blood samples, taken by orbital sinus puncture 30 minutes and one hour after injections, are collected directly into centrifuge tubes; 5 ml blood samples, taken by decapitation 2 hours after injection are collected directly into diSPo® beakers. The samples were allowed to clot, centrifuged, and the resultant sera were assayed for complement activity using the capillary complement assay. Percent inhibition is calculated by comparison with simultaneous controls. The results of the GPIP appear in Table I together with results of Test Code 026, 035, 036 and Cap 50.

SMILES	Cl 026* Wells [1] [Wells]	C-Late 035* Wells [2] [Wells]	C-Shunt Inhibition 036* Wells [3] [Wells]	In vivo Activity (Guinea Pigs) % Inhibition Intraperitoneal, 30 minutes [4] [%]	In vivo Activity (Guinea Pigs) % Inhibition Intraperitoneal, 60 minutes [4] [%]	In vivo Activity (Guinea Pigs) % Inhibition Intraperitoneal, 120 minutes [4] [%]
O=C([O-])c1cc(NS(=O)(=O)c2cc(S(=O)(=O)Nc3cc(C(=O)[O-])cc(C(=O)[O-])c3)c3cc(S(=O)(=O)Nc4cc(C(=O)[O-])cc(C(=O)[O-])c4)cc(S(=O)(=O)Nc4cc(C(=O)[O-])cc(C(=O)[O-])c4)c3c2)cc(C(=O)[O-])c1.[Na+].[Na+].[Na+].[Na+].[Na+].[Na+].[Na+].[Na+] [5,5',5",5"'-[1,3,5,7-Naphthalenetetrayltetrakis(sulfonylimino)]tetraisophthalic acid, octasodium salt]	7	2	6	66	71	76
O=C(O)c1cc(NS(=O)(=O)c2cc(S(=O)(=O)Nc3cc(C(=O)O)c(C(=O)O)c(C(=O)O)c3)c3cc(S(=O)(=O)Nc4cc(C(=O)O)c(C(=O)O)c(C(=O)O)c4)cc(S(=O)(=O)Nc4cc(C(=O)O)c(C(=O)O)c(C(=O)O)c4)c3c2)cc(C(=O)O)c1C(=O)O [5,5',5",5'"-[1,3,5,7-Naphthalenetetrayltetrakis(sulfonylimino)]tetra-1,2,3-benzenetricarboxylic acid, dodecasodium salt]	8	5	5	80	77	85
